Data on 14 compounds can be found in patent publication US20090082353A1, “TREATMENT OF EPILEPSY WITH NON-IMIDAZOLE ALKYLAMINES HISTAMINE H3-RECEPTOR LIGANDS” (priority 2005, published 2009).

Data set [1] concerns high-frequency cortical rhythms (EEG). The data set can be described thus: EEG rhythms in healthy human volunteers. It is filed as in vivo. The source says: In healthy human volunteers, orally-administered 3-(4-Chlorophenyl)propyl 3-piperidinopropyl ether dose-dependently elicited electroencephalographic changes (i.e. enhanced high-frequency cortical rhythms at the expense of low-frequency rhythms) which are regarded as predictory of facilitated thalamo-cortical activation and inhibition of pathological synchronisation underlying spike-wave discharges in epileptic states (Avanzini et al, Clinical Neurophysiol, 2000, 111, Suppl 2, S19). Groups of 6 male subjects received 40-120 mg 3-(4-Chlorophenyl)propyl 3-piperidinopropyl ether orally.

Data set [2] relates to pharmacoresistant epilepsy. Briefly: clinical study in pharmacoresistant epileptic patients. It counts as in vivo, human. To be noted: 20 to 40 mg/day during 3 months. Here is the method:
A clinical study has confirmed the efficiency of the compounds of the invention in treating pharmacoresistant epilepsy. Epileptic patients were enrolled. Those patients suffered from highly frequent seizures (generally more than 10 seizures monthly) despite their treatment consisting in one or more usual anti-epileptic drug of various classes (barbiturics, depakine, lamotrigine, gabapenine, benzodiazepines . . . ). Patients were administered with 3-(4-Chlorophenyl)propyl 3-piperidinopropyl ether at doses comprised between 20 and 40 mg/day during 3 months. Seizures frequency was reduced by 50% in a significant number of patients.

Data set [3] relates to intrahippocampal kainate-induced temporal lobe seizures. The data set can be described thus: intrahippocampal kainate-induced temporal lobe seizures in mice, EEG. It counts as in vivo. Here is the method: Unilateral injection of kainic acid (1 nmol in 50 nl) into the dorsal hippocampus in mice induces a non-convulsive status that results in spontaneous recurrent focal seizures after 2-3 weeks. Seizures (5 to 20 times per hour in quiet mice) are characterized by a behavioural arrest and/or stereotypes, concomitant with spike and poly-spike discharges recorded in the injected hippocampus. […] This model reproduces the behavioural, EEG, pharmacological and histological characteristics of mesial temporal lobe epilepsy, a form of epilepsy which is often drug-resistant in humans. After a recovery period, implanted mice (for EEG recordings) were injected with kainic acid. They were EEG recorded at least 3 weeks after injection for selection of animals with consistent hippocampal seizure. Then, after a 20 min reference recording period, selected mice received either 3-(4-Chlorophenyl)propyl 3-piperidinopropyl ether (10 or 20 mg/kg i.p.) or saline and the recording was continued for 60 min. Treatments were given in a counter balanced order (after a one week washout period between two sessions).

In data set [4] the test system is GAERS (Genetic Absence Epilepsy, Rat from Strasbourg). Briefly: GAERS rat genetic model of absence epilepsy, EEG spike-and-wave discharges. It counts as in vivo. As to the method: In a rat genetic model of human epilepsy (particularly of “absence” epilepsy in children and adults), the GAERS (Genetic Absence Epilepsy, Rat from Strasbourg; Vergnes et al, Epilepsy Res. 1989; 4, 8-13), 3-(4-Chlorophenyl)propyl 3-piperidinopropyl ether diminished by up to 77% the number and duration of spike-and-wave discharges, i.e. characteristic EEG changes of the disorder, at a dose of 20 mg/kg. In this strain of Wistar rats with spontaneous generalized non convulsive seizures (absence seizures), seizures are characterized by bilateral and synchronous spike-and-wave discharges (7-9 Hz) on EEG, concomitant with behavioural arrests. These discharges generally last about 20 sec and occur spontaneously every minute when the animals are in a state of quiet wakefulness. Pharmacological reactivity of this model is similar to human absence-epilepsy (e.g., valproate and ethosuccimide are protective). After a recovery period, implanted rats (cortical and hippocampal EEG electrodes) were recorded over a 20 min reference period. Then, 3-(4-Chlorophenyl)propyl 3-piperidinopropyl ether (5 or 20 mg/kg, i.p.) or saline were administered (n=8 per group) and the EEG recording was continued for 60 min. Rats received the alternate treatment one week later. Cumulated duration of absence-seizures was measured by 20 min periods during the two sessions.

For data set [5], the system named is photo paroxymal response (PPR). Briefly: photosensitivity model, intermittent photic stimulation (IPS) in epileptic patients. It counts as in vivo, human. The source says: Photosensitivity, defined as a generalized epileptiform reaction on intermittent photic stimulation (IPS) outlasting the stimulus train is found in about 5% of epileptic patients (Kasteleijn-Nolst trenité DGA. Acta Neurol Scand, 1989; 80:1-149). Unlike most other epilepsies, photosensitive epilepsy is a reflex epilepsy and epileptiform discharges can be evoked at any time by IPS in the laboratory. By determination of both upper and lower sensitivity limits (frequencies per flash) a so-called photosensitivity range can be determined. This range is related to liability of seizures in daily life of the patient. This photosensitivity range is relatively stable within a patient and can be diminished of abolished by antiepileptic medication. […] Furthermore, it is possible to explore the time, onset and duration of the effect, a dose-response relationship and to document serum concentration-time profiles of the study drug. […] The single blind design was chosen in order to reduce comparison bias of IPS response observed after treatment with 3-(4-Chlorophenyl)propyl 3-piperidinopropyl ether administration at Day 2 with placebo evaluation at Day 1. Five single doses will be studied (10 to 90 mg). the margin of safety was determined from the nonclinical and clinical experiments with 3-(4-Chlorophenyl)propyl 3-piperidinopropyl ether.

Data set [6] concerns clonic convulsions induced by pentetrazole. Briefly: clonic convulsions induced by pentetrazole in mice. It counts as in vivo. Here is the method: The inventors also assessed the effects of one of the non-imidazole compound they described in WO 00/06254, BF2-649 (3-(4-chlorophenyl)propyl 3-piperidinopropyl ether) at 10 mg/kg on clonic convulsions induced by pentetrazole in mice.

Data set [7] concerns electrically-driven convulsions. To be noted: in vivo; cited from earlier work.
Data set [8] has as its system pentetrazole-induced convulsions. To be noted: mice and rats; cited from earlier work.
Data set [9] concerns convulsions. The following applies: rodents; cited from earlier work.
For data set [10], the system named is H3-receptor. To be noted: cited from earlier work.
Data set [11] has as its system intrahippocampal kainate-induced temporal lobe seizures. The following applies: mice; cited from earlier work.
In data set [12] the test system is GAERS (Genetic Absence Epilepsy, Rat from Strasbourg). The following applies: in vivo; cited from earlier work.
The test system of data set [13] is amygdaloid-kindled seizures. To be noted: rats; cited from earlier work.
For data set [14], the system named is seizure susceptibility. The following applies: mice; cited from earlier work.

For the compound `Clc1ccc(CCCOCCCN2CCCCC2)cc1` [3-(4-chlorophenyl)propyl 3-piperidinopropyl ether], the “EEG response after repeated dosing” value in data set [1] (40 mg for 1 week) was “enhancement of the response observed on single administration”. Also, the “fast EEG activities” value in data set [1] (40-120 mg orally, single dose, anterior leads, dose-dependent) is reported as “significant enhancement of fast activities”. Further, the tolerability entry in data set [2] is “perfectly well tolerated”. For the same compound, the “reduction of seizures frequency” value in data set [2] (add-on, in a significant number of patients) was determined as 50%. Moreover, in data set [3] (10 or 20 mg/kg i.p., mice), the frequency of discharges result is recorded as “reduced significantly” and the “modification of interictal EEG profiles (non specific sedative effect)” value is given as “without any significant modification”. Moreover, in [3] (kainate mice), the “hippocampal seizures, number and duration” value is “reducing both the number and duration of seizures”. Moreover, the “diminution of number and duration of spike-and-wave discharges” value in data set [4] (20 mg/kg i.p., GAERS rats) is reported as “up to 77%”. Besides, the “spike and wave discharges at 20 min” value in data set [4] (20 mg/kg, 20 min) is listed as “total suppression”. In [4] (20 mg/kg, 1 h), the “spike and wave discharges at 1 h” value was “nearly total suppression”. Further, the “suppression of PPR” value in data set [5] (20 mg, four patients) is “one patient showed total suppression”. Further, in data set [5] (20 mg, one patient), the “duration of total PPR suppression” value worked out at 6 h. In data set [5] (40 mg, four patients), the “suppression of PPR” value was “one showed partial suppression of PPR and one total suppression of PPR”. For the same compound, in data set [5] (60 mg), the duration of effect result is “more than 8 hours” and the “onset of effect post administration” value lay in the range of 1 to 2 h. In data set [5] (60 mg, four patients), the clinical response entry is “clinical response in all four patients” and the “total suppression of PPR” value was “two patients showed total suppression of PPR”. The “longest duration of effect” value in data set [5] (60 mg, one patient) is on record as “up to 36 hours”. In data set [5] (add-on to Depakine, Tegretol, Keppra, Lamictal), the “tolerability of addition to conventional antiepileptic drugs” value is given as “well tolerated”. Also, the “EEG changes triggered by repetitive photic stimulation” value in [5] (single dose, photosensitive patients) is listed as “dose-dependently suppressed”. Also, in data set [6] (10 mg/kg with carbamazepine, sodium valproate, phenyloin, diazepam, Phenobarbital), the “modification (enhancement) of anticonvulsive properties of established antiepileptic drugs” value is reported as “did not modify”. Moreover, in data set [6] (10 mg/kg, mice, pentetrazole), the “preventing the convulsion (latency or duration)” value was “ineffective”.

`C(=NC12CC3CC(CC(C3)C1)C2)N1CCC(c2cnc[nH]2)CC1.Cl.Cl` [AQ0145]: the “effect on electrically-driven convulsions” value in data set [7] is on record as “reduce electrically-driven convulsions”. Further, in data set [8], the “effect on pentetrazole-induced convulsions” value was “prevent pentetrazole-induced convulsions”.

For `N[C@@H](Cc1c[nH]cn1)C(=O)O` [L-histidine], in [9], the protection from convulsions result was “tend to protect rodents from convulsions”.

Regarding `CNCCc1ccccn1` [betahistine], the “potency of H3-receptor antagonism” value in data set [10] was “only very low potency”.

With `NC(=O)N1c2ccccc2C=Cc2ccccc21` [carbamazepine], the “effect of antiepileptic drugs on kainate-induced seizures” value (“effect of antiepileptic drugs” below) in [11] was “without significant effects”.

For `NC(=NCc1ccc(Cl)cc1)SCCCc1cnc[nH]1` [clobenpropit], the “effect on electrically-driven convulsions” value in data set [7] is “reduce electrically-driven convulsions”. In [8], the “effect on pentetrazole-induced convulsions” value is on record as “prevent pentetrazole-induced convulsions”.

In the case of `CN(C)CCCSC(=N)N` [dimaprit], in data set [10], the “potency of H3-receptor antagonism” value is recorded as “only very low potency”.

As to `CCC1(C)CC(=O)NC1=O` (stereo not shown) [ethosuccimide], the “pharmacological reactivity of the GAERS model” value in [12] is “protective”.

In the case of `NCCc1c[nH]cn1` [histamine], the protection from convulsions result in data set [9] is on record as “tend to protect rodents from convulsions”.

In the case of `CC[C@@H](C(N)=O)N1CCCC1=O` [levetiracetam], the “effect of antiepileptic drugs” value in [11] is reported as “without significant effects”.

Turning to `Cc1nc(N)nc(N)c1-c1ccc(Cl)c(Cl)c1` [metoprine], the protection from convulsions entry in [9] is given as “tend to protect rodents from convulsions”.

As for `c1ccc(C2(N3CCCCC3)CCCCC2)cc1` [phencyclidine], in data set [10], the “potency of H3-receptor antagonism” value was “only very low potency”.

Take `O=C1NC(=O)C(c2ccccc2)(c2ccccc2)N1` [phenyloin]: the “effect of antiepileptic drugs” value in [11] was “without significant effects”.

`S=C(NC1CCCCC1)N1CCC(c2cnc[nH]2)CC1` [thioperamide]: the “effect on electrically-driven convulsions” value in data set [7] was “reduce electrically-driven convulsions”. The “effect on amygdaloid-kindled seizures” value in [13] is recorded as “ineffective”. The “effect on seizure susceptibility” value in data set [14] is listed as “failed to affect seizure susceptibility”. Further, the “effect on pentetrazole-induced convulsions” value in data set [8] is recorded as “prevent pentetrazole-induced convulsions”.
